# How the values were obtained:
# Assay in all cases: GABA concentration-response, TEVC electrophysiology in Xenopus oocytes
# Type in all cases: cell-based
# Settings in all cases: GABA as agonist
# human α1β2γ2S GABAAR = human α1β2γ2S GABAAR (Homo sapiens, UniProt P14867+P18507+P47870); set-up: expressed in transfected cells; host or cells: Xenopus laevis oocytes (cRNA injection, α:β2:γ2S 1:1:1)
# Experimental: (§1) The cDNAs encoding the human GABAAR subunits were linearized with DraIII (α1, α2, α3, α5 and α6), SmaI (β2 and γ2S) or StuI (δ) and used as templates for in vitro cRNA synthesis using the T7 mMESSAGE mMACHINE High Yield Capped RNA Transcription Kit (Life Technologies Corporation, Carlsbad, CA, USA). Except where otherwise indicated, Xenopus oocytes were injected with 36.8 nL cRNA solution encoding for α1β2γ2S, α2β2γ2S, α3β2γ2S and α5β2γ2S GABAARs in a 1:1:1 α:β2:γ2S ratio (2.7 ng/μL of each subunit), with 46 nL cRNA solution encoding for the α6β2δ GABAAR in a 10:1:10 α6:β2:δ ratio (1:0.1:1 μg/μL), with 18 nL cRNA solution encoding for the α1β2 GABAAR in a 1:1 α1:β2 ratio (0.6:0.6 μg/μL), or with 46 nL cRNA encoding for α6β2 (α6:β2 ratio: 1:0.1 μg/μL). […]
# (§2) Electrophysiological recordings were performed using the TEVC technique on Xenopus oocytes expressing various GABAAR combinations using a protocol adapted from previous studies. […] Cells were impaled with agar-plugged 0.5–1 MΩ electrodes containing 3 M KCl and voltage clamped at −70 mV by a Gene Clamp 500B amplifier (Axon Instruments, Union City, CA, USA) and recorded with pClamp 10 (Windows version, Molecular Devices, LLC, Sunnyvale, CA, USA). […] The recorded baseline-to-peak current amplitudes were analyzed using Clampfit 10.1 (Axon Instruments, Union City, CA, USA). […]
# human α6β2 GABAAR = target: T1, human α6β2 GABAAR (Homo sapiens, UniProt P47870+Q16445)
# T1 construct: expressed in transfected cells; host or cells: Xenopus laevis oocytes (cRNA injection)
# T1 sequence (Q16445 20-453): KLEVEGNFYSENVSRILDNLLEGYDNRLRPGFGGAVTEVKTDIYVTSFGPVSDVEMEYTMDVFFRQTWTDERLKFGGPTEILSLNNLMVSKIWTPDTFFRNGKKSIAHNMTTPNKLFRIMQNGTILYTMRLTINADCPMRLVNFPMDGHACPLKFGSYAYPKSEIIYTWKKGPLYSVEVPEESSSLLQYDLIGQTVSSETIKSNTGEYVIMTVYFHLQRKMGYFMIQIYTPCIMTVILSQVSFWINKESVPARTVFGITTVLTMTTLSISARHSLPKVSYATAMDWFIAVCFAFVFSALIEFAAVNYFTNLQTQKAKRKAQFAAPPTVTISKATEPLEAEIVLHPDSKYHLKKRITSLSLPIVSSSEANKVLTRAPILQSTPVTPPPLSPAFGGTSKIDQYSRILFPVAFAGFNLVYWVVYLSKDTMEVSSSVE
# T1 sequence (P47870 26-474 isoform P47870-1 limits assumed): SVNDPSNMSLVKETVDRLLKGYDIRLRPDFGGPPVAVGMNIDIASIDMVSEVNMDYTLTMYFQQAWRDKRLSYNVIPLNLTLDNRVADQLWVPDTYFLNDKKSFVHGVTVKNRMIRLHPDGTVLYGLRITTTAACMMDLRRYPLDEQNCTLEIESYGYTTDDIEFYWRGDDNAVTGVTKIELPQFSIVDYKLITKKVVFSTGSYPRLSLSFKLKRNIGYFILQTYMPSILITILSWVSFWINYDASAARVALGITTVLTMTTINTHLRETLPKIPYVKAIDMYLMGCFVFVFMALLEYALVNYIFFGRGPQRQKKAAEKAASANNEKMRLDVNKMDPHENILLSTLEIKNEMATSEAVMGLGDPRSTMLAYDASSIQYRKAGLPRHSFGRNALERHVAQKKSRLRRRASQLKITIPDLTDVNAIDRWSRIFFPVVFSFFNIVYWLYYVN
# Experimental: as §1, §2
# human α2β2γ2S GABAAR = target: T2, human α2β2γ2S GABAAR (Homo sapiens, UniProt P18507+P47869+P47870)
# T2 construct: expressed in transfected cells; host or cells: Xenopus laevis oocytes (cRNA injection, α:β2:γ2S 1:1:1; 1:1:5 in the zolpidem comparison)
# T2 sequence (P47869 29-451): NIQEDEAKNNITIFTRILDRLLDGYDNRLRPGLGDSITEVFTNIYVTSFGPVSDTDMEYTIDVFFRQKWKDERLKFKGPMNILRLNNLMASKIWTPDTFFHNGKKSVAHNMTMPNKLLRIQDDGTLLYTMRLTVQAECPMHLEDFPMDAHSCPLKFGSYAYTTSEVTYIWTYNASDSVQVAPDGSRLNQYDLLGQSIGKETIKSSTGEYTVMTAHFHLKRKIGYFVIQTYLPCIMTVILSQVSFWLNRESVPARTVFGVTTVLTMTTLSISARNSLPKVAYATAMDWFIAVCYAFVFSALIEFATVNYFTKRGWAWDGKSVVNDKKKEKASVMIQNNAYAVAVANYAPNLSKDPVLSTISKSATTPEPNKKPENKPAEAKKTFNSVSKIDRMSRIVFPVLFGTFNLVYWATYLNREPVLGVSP
# T2 sequence (P47870 26-474 isoform P47870-1 limits assumed): as the sequence (P47870 26-474 isoform P47870-1 limits assumed) above
# T2 sequence (P18507 40-467 isoform P18507-1 limits assumed): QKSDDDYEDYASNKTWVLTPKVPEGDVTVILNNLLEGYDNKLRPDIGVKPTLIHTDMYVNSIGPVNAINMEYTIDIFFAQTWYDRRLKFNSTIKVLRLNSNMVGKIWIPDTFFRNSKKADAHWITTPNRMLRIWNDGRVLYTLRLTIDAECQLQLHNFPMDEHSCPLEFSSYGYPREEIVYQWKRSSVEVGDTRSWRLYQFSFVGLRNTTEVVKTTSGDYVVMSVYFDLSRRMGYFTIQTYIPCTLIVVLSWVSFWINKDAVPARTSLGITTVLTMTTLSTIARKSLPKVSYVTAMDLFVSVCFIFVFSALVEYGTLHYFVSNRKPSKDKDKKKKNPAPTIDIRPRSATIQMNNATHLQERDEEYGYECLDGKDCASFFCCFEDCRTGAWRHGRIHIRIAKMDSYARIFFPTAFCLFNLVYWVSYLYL
# Experimental: (§3) The cDNAs encoding the human GABAAR subunits were linearized with DraIII (α1, α2, α3, α5 and α6), SmaI (β2 and γ2S) or StuI (δ) and used as templates for in vitro cRNA synthesis using the T7 mMESSAGE mMACHINE High Yield Capped RNA Transcription Kit (Life Technologies Corporation, Carlsbad, CA, USA). Except where otherwise indicated, Xenopus oocytes were injected with 36.8 nL cRNA solution encoding for α1β2γ2S, α2β2γ2S, α3β2γ2S and α5β2γ2S GABAARs in a 1:1:1 α:β2:γ2S ratio (2.7 ng/μL of each subunit), with 46 nL cRNA solution encoding for the α6β2δ GABAAR in a 10:1:10 α6:β2:δ ratio (1:0.1:1 μg/μL), with 18 nL cRNA solution encoding for the α1β2 GABAAR in a 1:1 α1:β2 ratio (0.6:0.6 μg/μL), or with 46 nL cRNA encoding for α6β2 (α6:β2 ratio: 1:0.1 μg/μL). Following injection, the oocytes were incubated at 18°C in modified Barth’s solution [88 mM NaCl, 1 mM KCl, 15 mM HEPES (pH 7.5), 2.4 mM NaHCO3, 0.41 mM CaCl2, 0.82 mM MgSO4, 0.3 mM Ca(NO3)2, 100 U/mL penicillin and 100 μg/mL streptomycin]. Electrophysiological recordings were performed 3 to 6 days after injection.
# (§4) Electrophysiological recordings were performed using the TEVC technique on Xenopus oocytes expressing various GABAAR combinations using a protocol adapted from previous studies. […] Cells were impaled with agar-plugged 0.5–1 MΩ electrodes containing 3 M KCl and voltage clamped at −70 mV by a Gene Clamp 500B amplifier (Axon Instruments, Union City, CA, USA) and recorded with pClamp 10 (Windows version, Molecular Devices, LLC, Sunnyvale, CA, USA). The oocytes were continuously perfused with Ringer buffer, and the test compounds were applied in the perfusate. Experiments were performed at room temperature and each data point represents the mean ± S.E.M. value of recordings performed on at least two oocytes from at least two different batches of oocytes. The recorded baseline-to-peak current amplitudes were analyzed using Clampfit 10.1 (Axon Instruments, Union City, CA, USA). […]
# human α3β2γ2S GABAAR = target: T3, human α3β2γ2S GABAAR (Homo sapiens, UniProt P18507+P34903+P47870)
# T3 construct: expressed in transfected cells; host or cells: Xenopus laevis oocytes (cRNA injection, 1:1:1)
# T3 sequence (P34903 29-492): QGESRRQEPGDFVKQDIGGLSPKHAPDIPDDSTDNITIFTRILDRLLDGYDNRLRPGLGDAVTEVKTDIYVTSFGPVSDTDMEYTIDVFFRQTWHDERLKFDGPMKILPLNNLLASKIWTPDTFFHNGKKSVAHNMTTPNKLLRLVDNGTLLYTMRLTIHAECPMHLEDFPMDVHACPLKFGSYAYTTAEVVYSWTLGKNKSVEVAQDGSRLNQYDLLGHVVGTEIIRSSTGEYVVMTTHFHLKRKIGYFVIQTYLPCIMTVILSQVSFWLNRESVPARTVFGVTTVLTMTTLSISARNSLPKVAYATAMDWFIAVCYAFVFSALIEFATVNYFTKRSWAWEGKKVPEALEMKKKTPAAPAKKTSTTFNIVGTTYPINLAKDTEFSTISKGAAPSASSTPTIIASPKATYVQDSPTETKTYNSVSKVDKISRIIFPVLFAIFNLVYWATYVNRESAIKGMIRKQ
# T3 sequence (P47870 26-474 isoform P47870-1 limits assumed): as the sequence (P47870 26-474 isoform P47870-1 limits assumed) above
# T3 sequence (P18507 40-467 isoform P18507-1 limits assumed): as the sequence (P18507 40-467 isoform P18507-1 limits assumed) above
# Experimental: as §3, §4
# human α5β2γ2S GABAAR = target: T4, human α5β2γ2S GABAAR (Homo sapiens, UniProt P18507+P31644+P47870)
# T4 construct: expressed in transfected cells; host or cells: Xenopus laevis oocytes (cRNA injection, 1:1:1)
# T4 sequence (P31644 32-462): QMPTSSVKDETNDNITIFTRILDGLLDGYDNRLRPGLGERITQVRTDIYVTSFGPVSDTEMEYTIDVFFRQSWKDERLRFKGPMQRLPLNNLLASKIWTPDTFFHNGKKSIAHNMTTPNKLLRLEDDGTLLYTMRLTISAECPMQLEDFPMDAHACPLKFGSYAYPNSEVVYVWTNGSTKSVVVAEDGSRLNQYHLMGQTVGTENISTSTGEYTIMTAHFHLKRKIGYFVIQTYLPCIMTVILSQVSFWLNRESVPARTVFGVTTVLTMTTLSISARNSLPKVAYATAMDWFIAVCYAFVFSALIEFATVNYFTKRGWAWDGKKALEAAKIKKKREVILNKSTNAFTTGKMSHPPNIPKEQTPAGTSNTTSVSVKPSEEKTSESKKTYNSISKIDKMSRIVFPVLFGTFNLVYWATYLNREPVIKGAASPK
# T4 sequence (P47870 26-474 isoform P47870-1 limits assumed): as the sequence (P47870 26-474 isoform P47870-1 limits assumed) above
# T4 sequence (P18507 40-467 isoform P18507-1 limits assumed): as the sequence (P18507 40-467 isoform P18507-1 limits assumed) above
# Experimental: as §3, §4
# human α1β2γ2S GABAAR, sequence (P14867 28-456): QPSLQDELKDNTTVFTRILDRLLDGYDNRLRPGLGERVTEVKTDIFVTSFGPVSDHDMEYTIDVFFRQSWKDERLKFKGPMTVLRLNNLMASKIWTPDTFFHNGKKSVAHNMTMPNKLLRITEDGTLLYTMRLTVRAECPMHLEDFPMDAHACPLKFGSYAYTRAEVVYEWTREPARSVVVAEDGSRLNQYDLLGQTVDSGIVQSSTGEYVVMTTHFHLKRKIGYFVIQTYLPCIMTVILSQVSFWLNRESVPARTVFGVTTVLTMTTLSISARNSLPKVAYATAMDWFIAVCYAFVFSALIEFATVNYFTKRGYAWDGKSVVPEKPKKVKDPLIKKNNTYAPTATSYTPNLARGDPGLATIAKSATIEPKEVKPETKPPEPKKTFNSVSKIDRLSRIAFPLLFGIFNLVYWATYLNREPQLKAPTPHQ
# human α1β2γ2S GABAAR, sequence (P47870 26-474 isoform P47870-1 limits assumed): as the sequence (P47870 26-474 isoform P47870-1 limits assumed) above
# human α1β2γ2S GABAAR, sequence (P18507 40-467 isoform P18507-1 limits assumed): as the sequence (P18507 40-467 isoform P18507-1 limits assumed) above
smiles,measurement,setting,value
"NCCCC(=O)O [GABA, γ-aminobutyric acid]",Hill slope nH ± S.E.M.,human α1β2γ2S GABAAR,1.19 ± 0.05
same,Hill slope nH ± S.E.M.,human α6β2 GABAAR,0.89 ± 0.09
same,Hill slope nH ± S.E.M.,human α2β2γ2S GABAAR,1.44 ± 0.07
same,Hill slope nH ± S.E.M.,human α3β2γ2S GABAAR,1.22 ± 0.05
same,Hill slope nH ± S.E.M.,human α5β2γ2S GABAAR,1.19 ± 0.08

# Source: PMC4370687, “Functional Characterization of the 1,5-Benzodiazepine Clobazam and Its Major Active Metabolite N-Desmethylclobazam at Human GABAA Receptors Expressed in Xenopus laevis Oocytes” (PLoS ONE, 2015)
